Measured values taken from patent US10519111B2, “UV absorbing compounds, compositions comprising same and uses thereof” (CORAL SUNSCREEN PTY LTD, priority 2013, dated 2019).

Tests used:
[1] = Critical wavelength (λcrit), approximate in-house measurement; assay type: physicochemical
Description: As the precise test for critical wavelength was unable to be replicated exactly by the inventors due to the need for specialist equipment and a specific calibration of the spectrophotometer, these values are only approximate to a degree. […] This represents a highly useful result and so, compounds based around this benzoyl substitution pattern shown, are especially preferred.

Photostability = assay type: physicochemical; settings: Table 13B
[2] = UV absorption properties (λmax, molar extinction coefficient ε, efficiency E 1%, 1 cm); assay type: physicochemical
[3] = literature value, standardised test; cited from earlier work
[4] = Table 13B, miscellaneous compounds
[5] = Table 13B, values in order of the λmax values
[6] = Table 13B, values in order of the λmax values, in M-1 cm-1
[7] = values in order of the λmax values
[8] = Table 12, 2-substituted compounds

CN1C=C(C(=O)c2ccc(N(C)CCCCCCN(C)c3ccc(C(=O)C4=CN(C(C)(C)C)CCC4(C)C)cc3)cc2)C(C)(C)CC1
λcrit ([1]; Table 13B): 364 nm | Photostability (%) (Photostability): 22%

CC1(C)CCN(C(C)(C)C)C=C1C(=O)/C=C/c1cccc(/C=C/C(=O)C2=CN(C(C)(C)C)CCC2(C)C)c1
λmax [2, 4]: 360 nm | E (1%, 1 cm) [2, 5]: 395 | ε [2, 6]: 20388 | λcrit ([1]; Table 13B): 386 nm | Photostability (%) (Photostability): 95%

CC1(C)CCN(C(C)(C)C)C=C1C(=O)c1ccc(F)cc1
λmax [2, 4]: 316 nm | E (1%, 1 cm) [2, 5]: 655 | ε [2, 6]: 20919 | λcrit ([1]; Table 13B): 346 nm | Photostability (%) (Photostability): 75%

CC1(C)CCN(C(C)(C)C)C=C1C(=O)/C=C/c1ccc(C(=O)C2=CN(C(C)(C)C)CCC2(C)C)cc1
λmax [2, 4]: 360 nm | E (1%, 1 cm) [2, 5]: 564 | ε [2, 6]: 27646 | λcrit ([1]; Table 13B): 385 nm | Photostability (%) (Photostability): 77%

CCCCC(CC)CN(c1ccc(C(=O)C2=CN(C(C)(C)C)CCC2(C)C)cc1)c1ccc(C(=O)C2=CN(C(C)(C)C)CCC2(C)C)cc1 (stereo not shown)
λmax [2, 4]: 316 nm | E (1%, 1 cm) [2, 5]: 624 | ε [2, 6]: 41598 | shoulder in the λmax column ([2]; Tables 5, 10, 13B): ~340 nm | λcrit ([1]; Table 13B): 369 nm | Photostability (%) + Octo (Photostability; with octocrylene (+ Octo)): 90%

CCCCC(CC)COC(=O)c1cc(/C=C/C(=O)C2=CN(C(C)(C)C)CCC2(C)C)ccc1/C=C/C(=O)C1=CN(C(C)(C)C)CCC1(C)C (stereo not shown)
λmax [2, 4]: 378 nm | E (1%, 1 cm) [2, 5]: 460 | ε [2, 6]: 30963 | λcrit ([1]; Table 13B): 388 nm | Photostability (%) (Photostability): 2%

CC(C)CN1C=C(C(=O)C(C)(C)C)C(C)(C)CC1
λmax [2, 4]: 309 nm | E (1%, 1 cm) [2, 5]: 1137 | ε [2, 6]: 28554 | λcrit ([1]; Table 13B): 327 nm | Photostability (%) (Photostability): 60%

CCCCC(CC)COC(=O)CCC(=O)C1=CN(c2ccc(N3C=C(C(=O)CCC(=O)OCC(CC)CCCC)C(C)(C)CC3)cc2)CCC1(C)C (stereo not shown)
λmax [2, 4]: 359 nm | E (1%, 1 cm) [2, 5]: 628 | ε [2, 6]: 45301 | λcrit ([1]; Table 13B): 379 nm | Photostability (%) (Photostability): 52%

CC1(C)CCN(c2ccc(N3C=C(C(=O)CCC(F)(F)F)C(C)(C)CC3)cc2)C=C1C(=O)CCC(F)(F)F
λmax [2, 4]: 358 nm | E (1%, 1 cm) [2, 5]: 1090 | ε [2, 6]: 59296 | λcrit ([1]; Table 13B): 379 nm | Photostability (%) (Photostability): 54%

Cc1ccc(NC(=O)C2=CN(C(C)(C)CC(C)(C)C)CCC2(C)C)cc1NC(=O)C1=CN(C(C)(C)CC(C)(C)C)CCC1(C)C
λmax [2, 4]: 311 nm | E (1%, 1 cm) [2, 5]: 990 | ε [2, 6]: 61479 | λcrit ([1]; Table 13B): 328 nm | Photostability (%) (Photostability): 55%

CCCCC(CC)CN(c1ccc(C(=O)C2=CN(C(C)(C)C)CCC2(C)C)cc1)c1ccc(C(=O)C2=CN(C(C)(C)C)CCC2(C)C)cc1.Cl (stereo not shown)
λmax [2, 4]: 316 nm | E (1%, 1 cm) [2, 5]: 653 | ε [2, 6]: 45910 | λcrit ([1]; Table 13B): 370 nm | Photostability (%) (Photostability): 39%

CC1(C)CCN(C(C)(C)C)C=C1C(=O)c1ccccc1
λmax [2, 4]: 315 nm | E (1%, 1 cm) [2, 5]: 939 | ε [2, 6]: 25447 | λcrit ([1]; Table 13B): 342 nm | Photostability (%) (Photostability): 76%

CC1(C)CCN(C(C)(C)C)C=C1C(=O)c1c(F)cccc1F
λmax [2, 4]: 312 nm | E (1%, 1 cm) [2, 5]: 1162 | ε [2, 6]: 35700 | λcrit ([1]; Table 13B): 331 nm | Photostability (%) (Photostability): 85%

CC1(C)CCN(C(C)(C)C)C=C1C(=O)c1c(F)c(F)c(F)c(F)c1F
λmax [2, 4]: 314 nm | E (1%, 1 cm) [2, 5]: 951 | ε [2, 6]: 34340 | λcrit ([1]; Table 13B): 333 nm | Photostability (%) (Photostability): 100%

CC1(C)CCN(C(C)(C)C)C=C1C(=O)c1ccc(C(F)(F)F)cc1
λmax [2, 4]: 315 nm | E (1%, 1 cm) [2, 5]: 782 | ε [2, 6]: 26531 | λcrit ([1]; Table 13B): 349 nm | Photostability (%) (Photostability): 76%

CCOC(=O)C(=O)C1=CN(C(C)(C)C)CCC1(C)C
λmax [2, 4]: 311 nm | E (1%, 1 cm) [2, 5]: 998 | ε [2, 6]: 26668 | λcrit ([1]; Table 13B): 344 nm | Photostability (%) (Photostability): 50%

CCOC(=O)C(=O)C1=CN(c2ccccc2)CCC1(C)C
λmax [2, 4]: 332 nm | E (1%, 1 cm) [2, 5]: 1210 | ε [2, 6]: 34743 | λcrit ([1]; Table 13B): 362 nm | Photostability (%) (Photostability): 68%

CC1(C)CCN(C(C)(C)C)C=C1C(=O)c1ccccn1
λmax [2, 4]: 317 nm | E (1%, 1 cm) [2, 5]: 635 | ε [2, 6]: 17272 | λcrit ([1]; Table 13B): 360 nm | Photostability (%) (Photostability): 22%

Cc1cc(C)c(C(=O)C2=CN(C(C)(C)C)CCC2(C)C)c(C)c1
λmax [2, 4]: 311 nm | E (1%, 1 cm) [2, 5]: 1084 | ε [2, 6]: 33953 | λcrit ([1]; Table 13B): 326 nm | Photostability (%) (Photostability): 33%

COc1ccc(C(=O)CC(=O)c2ccc(C(C)(C)C)cc2)cc1 [Avobenzone, reference compound]
critical wavelength ([1]; values only approximate): 378 nm | critical wavelength, reported [3]: 380 nm

CN(C)c1ccc(C(=O)C2=CN(C(C)(C)C)CCC2(C)C)cc1 [Compound 157, (1-(tert-butyl)-4,4-dimethyl-1,4,5,6-tetrahydropyridine-3-yl)(4-(dimethylamino)phenyl)methanone]
UV λmax [2]: 333 nm | ε (molar extinction coefficient) [2, 7]: 24966 M⁻¹ cm⁻¹ | melting point: 162 to 163 °C

CC(C)(C)Oc1ccc(C(=O)C2=CN(C(C)(C)C)CCC2(C)C)cc1 [Compound 158, (4-(tert-butoxy)phenyl)(1-(tert-butyl)-4,4-dimethyl-1,4,5,6-tetrahydropyridin-3-yl)methanone]
UV λmax [2]: 317 nm | ε (molar extinction coefficient) [2, 7]: 32556 M⁻¹ cm⁻¹ | melting point: 98 to 101 °C

CC1(C)CCN(C(C)(C)C)C=C1C(=O)c1ccc(C(=O)C2=CN(C(C)(C)C)CCC2(C)C)cc1 [Compound 159, 1,4-phenylenebis((1-(tert-butyl)-4,4-dimethyl-1,4,5,6-tetrahydropyridin-3-yl)methanone)]
UV λmax [2]: 317 nm | ε (molar extinction coefficient) [2, 7]: 33982 M⁻¹ cm⁻¹ | melting point: 243 °C (dec.)

CC1(C)CCN(C(C)(C)C)C=C1C(=O)c1ccc(C(=O)O)cc1 [Compound 160, 4-(1-(tert-butyl)-4,4-dimethyl-1,4,5,6-tetrahydropyridine-3-carbonyl)benzoic acid]
UV λmax [2]: 317 nm | ε (molar extinction coefficient) [2, 7]: 17300 M⁻¹ cm⁻¹ | melting point: 80 to 83 °C

CC1(C)CCN(c2ccc(C(C)(C)C)cc2)C=C1C(OC(=O)C1c2ccccc2-c2ccccc21)=C1c2ccccc2-c2ccccc21 [Compound 206, (1-(4-(tert-butyl)phenyl)-4,4-dimethyl-1,4,5,6-tetrahydropyridin-3-yl)(9H-fluoren-9-ylidene)methyl 9H-fluorene-9-carboxylate]
UV λmax [2]: 407 nm | melting point: 145 °C

CC1(C)CCN(c2ccc(C(C)(C)C)cc2)C=C1C(OC(=O)C1c2ccccc2-c2ccccc21)=C1c2ccccc2-c2ccccc21 [drawing 159]
E (1%, 1 cm) ([2]; Table 11): 105 | λmax ([2]; Table 11, compounds from mixed anhydrides): 407 nm | ε ([2]; Table 11, in M-1 cm-1): 6635 | λcrit ([1]; Table 11): 387 nm

CCC(=O)C1=C(c2ccccc2)N(CC(C)C)CCC1(C)C [drawing 163]
E (1%, 1 cm) ([2]; Table 12): 268 | ε ([2]; Table 12): 8000 M⁻¹ cm⁻¹ | λmax [2, 8]: 338 nm | λcrit ([1]; Table 12): 365 nm

CCC(=O)O/C(=C\C1=CC(C)(C)CCN1CC(C)C)CC [drawing 165]
E (1%, 1 cm) ([2]; Table 12): 683 | ε ([2]; Table 12): 20000 M⁻¹ cm⁻¹ | λmax [2, 8]: 323 nm | λcrit ([1]; Table 12): 344 nm

CCC(=O)C1=CN(CC(C)C)C=CC1(C)C [drawing 170]
E (1%, 1 cm) ([2]; Table 13A): 362 | ε ([2]; Table 13A): 8800 M⁻¹ cm⁻¹ | λmax ([2]; Table 13A, miscellaneous compounds): 366 nm | λcrit ([1]; Table 13A): 386 nm

CC(C)=CCCC(C)CC(=O)C1=CN(c2ccc(N3C=C(C(=O)CC(C)CCC=C(C)C)C(C)(C)CC3)cc2)CCC1(C)C (stereo not shown) [drawing 212]
λmax [2, 4]: 359 nm | E (1%, 1 cm) [2, 5]: 690 | ε [2, 6]: 41400 | λcrit ([1]; Table 13B): 379 nm

CC(C)=CCCC(C)CC(=O)C1=CN(c2ccc(N3C=C(C(=O)CC(C)CCC=C(C)C)C(C)(C)CC3)cc2)CCC1(C)C (stereo not shown) [drawing 213]
λmax [2, 4]: 358 nm | E (1%, 1 cm) [2, 5]: 550 | ε [2, 6]: 33000 | λcrit ([1]; Table 13B): 378 nm
